Experimental data published in ChEMBL document CHEMBL3877297, “Chemical exploration of 4-(4-fluorobenzyl)piperidine fragment for the development of new tyrosinase inhibitors” (Eur J Med Chem, 2017).
Active and inactive are the calls of the source. The rule behind the calls is not given here.

Assays:
[1] = target: T1, Mushroom tyrosinase (Agaricus bisporus) (UniProt O42713+Q00024+C7FF04+C7FF05); assay: Non-competitive inhibition of mushroom tyrosinase diphenolase activity at 25 to 100 uM using varying levels of L-DOPA as substrate by Lineweaver-Burk plot analysis
[2] = target: T2, Mushroom tyrosinase (Agaricus bisporus, UniProt O42713+Q00024+C7FF04+C7FF05); assay: Inhibition of mushroom tyrosinase monophenolase activity using L-tyrosine as substrate measured after 30 mins
[3] = target: T2, Mushroom tyrosinase; assay: Inhibition of mushroom tyrosinase diphenolase activity using L-DOPA as substrate measured after 5 mins
[4] = target: T1, Mushroom tyrosinase (Agaricus bisporus); assay: Non-competitive inhibition of mushroom tyrosinase diphenolase activity at 4 to 16 uM using varying levels of L-DOPA as substrate by Lineweaver-Burk plot analysis
[5] = target: T1, Mushroom tyrosinase (Agaricus bisporus); assay: Potency index, ratio of 3-(4-benzylpiperidin-1-yl)-1-(1H-indol-3-yl)propan-1-one IC50 to compound IC50 for mushroom tyrosinase diphenolase activity
[6] = target: T2, Mushroom tyrosinase; assay: Inhibition of mushroom tyrosinase assessed as reduction in formation of dopachrome using L-DOPA as substrate
[7] = target: T1, Mushroom tyrosinase (Agaricus bisporus); assay: Potency index, ratio of 3-(4-benzylpiperidin-1-yl)-1-(1H-indol-3-yl)propan-1-one IC50 to compound IC50 for mushroom tyrosinase monophenolase activity
[8] = target: T1, Mushroom tyrosinase (Agaricus bisporus); assay: Mixed-type inhibition of mushroom tyrosinase diphenolase activity at 4 to 16 uM using varying levels of L-DOPA as substrate by Lineweaver-Burk plot analysis

| SMILES | IC50 [2] | IC50 [3] | other results |
| --- | --- | --- | --- |
| O=C(CCN1CCC(Cc2ccc(F)cc2)CC1)Nc1ccccc1 | 28.85 µM | 27.9 µM | inhibition [1]: Active |
| O=C(CCN1CCC(Cc2ccc(F)cc2)CC1)Nc1cc[nH]n1 | 5.87 µM | 39.58 µM | – |
| COc1cc2[nH]cc(C(=O)CCN3CCC(Cc4ccccc4)CC3)c2cc1OC | 57.24 µM | 133 µM | – |
| O=C(CCN1CCC(Cc2ccccc2)CC1)c1c[nH]c2ccccc12 | 175 µM | 252 µM | – |
| O=C(CCN1CCC(Cc2ccc(F)cc2)CC1)n1cnc2ccccc21 | 113.34 µM | 159.24 µM | – |
| COc1ccc2[nH]cc(C(=O)CCN3CCC(Cc4ccc(F)cc4)CC3)c2c1 | 7.86 µM | 14.15 µM | inhibition [4]: Active; Ratio IC50 [5]: < 35 |
| COc1cccc2c1c(C(=O)/C=C(\O)C(=O)O)cn2Cc1ccc(F)cc1 | – | – | IC50 [6]: 224 µM |
| COc1ccc2[nH]cc(C(=O)CCN3CCC(Cc4ccccc4)CC3)c2c1 | 25.78 µM | 197.45 µM | Ratio IC50 [7]: 7 |
| COc1ccc2c(C(=O)CCN3CCC(Cc4ccccc4)CC3)c[nH]c2c1 | 67.25 µM | 168.55 µM | – |
| COc1cc2[nH]cc(C(=O)CCN3CCC(Cc4ccc(F)cc4)CC3)c2cc1OC | 5.11 µM | 7.56 µM | inhibition [8]: Active; Ratio IC50 [5]: < 35 |
| CCN1CCC(Cc2ccc(F)cc2)CC1 | 32.17 µM | 116 µM | – |
| O=C(CCN1CCC(Cc2ccc(F)cc2)CC1)NCc1ccccc1 | 13.98 µM | 83 µM | – |
| COc1ccc2c(C(=O)CCN3CCC(Cc4ccc(F)cc4)CC3)c[nH]c2c1 | 9.4 µM | 18.03 µM | inhibition [4]: Active; Ratio IC50 [5]: < 35 |
| Cc1cc(NC(=O)CCN2CCC(Cc3ccc(F)cc3)CC2)on1 | 28.55 µM | 110.95 µM | – |
| O=C(CCN1CCC(Cc2ccc(F)cc2)CC1)c1c[nH]c2ccccc12 | 9.45 µM | 8.82 µM | inhibition [4]: Active; Ratio IC50 [5]: < 35 |
| COc1cccc2c1c(C(=O)C(=O)Nc1cn[nH]n1)cn2Cc1ccc(F)cc1 | – | – | IC50 [6]: 372 µM |
